# Laboratory results: patent publication US20260034130A1 (priority 2022, published 2026)
# Like-named read-outs stand apart in the source and are kept apart here.
# Key:
# [1] = system: patients with acute ischemic stroke or high-risk TIA
# Excerpt: As used herein, the “Bleeding Academic Research Consortium (BARC) Type 3 criteria” are: a. Overt bleeding plus hemoglobin drop of 3 to <5 g/dL (provided hemoglobin drop is related to bleed); transfusion with overt bleeding; b. Overt bleeding plus hemoglobin drop ≥5 g/dL (provided hemoglobin drop is related to bleed); cardiac tamponade; bleeding requiring surgical intervention for control; bleeding requiring IV vasoactive agents; or c. Intracranial hemorrhage confirmed by autopsy, imaging, or lumbar puncture; intraocular bleed compromising vision. See, e.g., Roxana Mehran, et al. Standardized Bleeding Definitions for Cardiovascular Clinical Trials, Circulation.
# As used herein, the “Bleeding Academic Research Consortium (BARC) Type 5 criteria” are: a. Probable fatal bleeding; or b. Definite fatal bleeding (overt or autopsy or imaging confirmation). See, e.g., Roxana Mehran, et al. Standardized Bleeding Definitions for Cardiovascular Clinical Trials, Circulation.
# As used herein, the “Bleeding Academic Research Consortium (BARC) Type 2 criteria” are: any clinically overt sign of hemorrhage that “is actionable” and requires diagnostic studies, hospitalization, or treatment by a health care professional. See, e.g., Roxana Mehran, et al. Standardized Bleeding Definitions for Cardiovascular Clinical Trials, Circulation.
# The secondary endpoint of major bleeding was determined by the occurrence of types 3 and 5 bleeding, according to the Bleeding Academic Research Consortium (BARC) classification system. Roxana Mehran, et al. Standardized Bleeding Definitions for Cardiovascular Clinical Trials, Circulation. […] Bleeding was additionally evaluated utilizing International Society on Thrombosis and Haemostasis (ISTH) and PLATelet inhibition and patient Outcomes (PLATO) criteria.
# The population for safety analysis includes all participants who received at least one dose of study medication. This is the primary population used in safety analysis and is analyzed according to the treatment assigned at randomization.
# Analysis of all safety data will be performed on participants treated with ≥1 dose of double-blind drug. The proportion of participants with major bleeding events (BARC types 3 and 5), as well as BARC-, ISTH-, and PLATO-defined criteria, will be summarized by treatment group. Additional summaries will include characteristics of cerebral microbleeds, hemorrhagic transformation of ischemic stroke, and asymptomatic intracranial bleeding. Adverse event and laboratory data, as well as PK and PD data, will be summarized.
# [2] = system: patients undergoing TKR (total knee replacement); details: 25 mg twice daily; cited from earlier work
# [3] = system: patients with acute ischemic stroke or high-risk TIA; test: AXIOMATIC-SSP composite of new ischemic stroke, MI and all-cause death; assay type: in vivo, human; details: up to Day 90
# Excerpt: Event rates of the composite of new ischemic non-fatal stroke, non-fatal myocardial infarction, or all-cause death.
# [4] = system: intrinsic coagulation pathway; test: AXIOMATIC-SSP pharmacodynamics: activated partial thromboplastin time (aPTT) and percent change from baseline; assay type: in vivo, human; details: for aPTT Percent Change from Baseline Mean / aPTT Percent Change from Baseline Median / aPTT Value Mean / aPTT Value Median: 50 mg BID
# [5] = system: patients with acute ischemic stroke or high-risk TIA; test: AXIOMATIC-SSP vascular territory of incident infarcts at Day 90 compared with baseline; assay type: in vivo, human
# Excerpt: At baseline, recent ischemic lesions were detected and quantified using the DWI sequence. Incident infarcts (defined as new imaging lesions compared to the baseline MRI which may be associated with a symptomatic ischemic stroke or be covert in nature) were detected at Day 90 on the FLAIR sequence and categorized as DWI positive or DWI negative based on whether they could also be detected on the DWI sequence. DWI positive lesions at Day 90 were likely associated with infarctions occurring late during the follow-up period (approximately from Day 30 to Day 90) while DWI negative lesions were more likely related to earlier infarctions (approximately occurring by Day 30). The vascular territory of incident infarcts was also assessed at Day 90.
smiles,measurement,setting,value
"C[C@@H]1CCC[C@H](n2cnc(-c3cc(Cl)ccc3-n3cc(Cl)nn3)cc2=O)c2cc(ccn2)-c2c(cnn2C(F)F)NC1=O [milvexian, (5R,9S)-9-(4-(5-chloro-2-(4-chloro-1H-1,2,3-triazol-1-yl)phenyl)-6-oxopyrimidin-1(6H)-yl)-21-(difluoromethyl)-5-methyl-21H-3-aza-1(4,2)-pyridina-2(5,4)-pyrazolacyclonaphan-4-one]","BARC Type 5 (fatal) bleeding, subjects n","[1]; 25 mg BID, N = 313",0
same,"BARC Type 5 bleeding, Incidence Rate (n/N %)","[1]; 25 mg BID, N = 313",(0) %
same,"BARC Type 5 (fatal) bleeding, subjects n","[1]; 25 mg QD, N = 325",0
same,"BARC Type 5 bleeding, Incidence Rate (n/N %)","[1]; 25 mg QD, N = 325",(0) %
same,"BARC Type 5 (fatal) bleeding, subjects n","[1]; 50 mg BID, N = 325",0
same,"BARC Type 5 bleeding, Incidence Rate (n/N %)","[1]; 50 mg BID, N = 325",(0) %
same,"BARC Type 5 (fatal) bleeding, subjects n","[1]; 100 mg BID, N = 306",0
same,"BARC Type 5 bleeding, Incidence Rate (n/N %)","[1]; 100 mg BID, N = 306",(0) %
same,"BARC Type 5 (fatal) bleeding, subjects n","[1]; 200 mg BID, N = 344",0
same,"BARC Type 5 bleeding, Incidence Rate (n/N %)","[1]; 200 mg BID, N = 344",(0) %
same,fatal bleeding,[1]; all treatment arms,No fatal bleeding
same,incidence rate (n/N %) of bleeding endpoint (BARC Type 3 and 5),"[1]; human, in vivo, 90 days",0.6-1.6%
same,efficacy versus enoxaparin in AXIOMATIC-TKR,[2],comparable efficacy to enoxaparin
same,All Cause Death (%),"[3]; 25 mg BID, N = 318",(0.9) %
same,"All Cause Death, subjects n","[3]; 25 mg BID, N = 318",3
same,Myocardial Infarction (%),"[3]; 25 mg BID, N = 318",(0.6) %
same,"Myocardial Infarction, subjects n","[3]; 25 mg BID, N = 318",2
same,"New Ischemic Stroke, MI And All Cause Death: Subjects With Event (%)","[3]; 25 mg BID, N = 318",(4.7) %
same,All Cause Death (%),"[3]; 25 mg QD, N = 328",(0.9) %
same,"All Cause Death, subjects n","[3]; 25 mg QD, N = 328",3
same,Myocardial Infarction (%),"[3]; 25 mg QD, N = 328",(0.3) %
same,"Myocardial Infarction, subjects n","[3]; 25 mg QD, N = 328",1
same,"New Ischemic Stroke, MI And All Cause Death: Subjects With Event (%)","[3]; 25 mg QD, N = 328",(5.2) %
same,All Cause Death (%),"[3]; 50 mg BID, N = 328",(0.6) %
same,"All Cause Death, subjects n","[3]; 50 mg BID, N = 328",2
same,Myocardial Infarction (%),"[3]; 50 mg BID, N = 328",(0.3) %
same,"Myocardial Infarction, subjects n","[3]; 50 mg BID, N = 328",1
same,"New Ischemic Stroke, MI And All Cause Death: Subjects With Event (%)","[3]; 50 mg BID, N = 328",(4.9) %
same,All Cause Death (%),"[3]; 100 mg BID, N = 310",(1.6) %
same,"All Cause Death, subjects n","[3]; 100 mg BID, N = 310",5
same,Myocardial Infarction (%),"[3]; 100 mg BID, N = 310",(0.6) %
same,"Myocardial Infarction, subjects n","[3]; 100 mg BID, N = 310",2
same,"New Ischemic Stroke, MI And All Cause Death: Subjects With Event (%)","[3]; 100 mg BID, N = 310",(5.2) %
same,"All Cause Death, subjects n","[3]; 200 mg BID, N = 351",4
same,"Myocardial Infarction, subjects n","[3]; 200 mg BID, N = 351",3
same,aPTT Percent Change from Baseline Mean,"[4]; DAY 1 24 h, N 269",85.17%
same,aPTT Percent Change from Baseline Median,"[4]; DAY 1 24 h, N 269",81.89%
same,aPTT Value Mean,"[4]; DAY 1 24 h, N 269",49.38 s
same,aPTT Value Median,"[4]; DAY 1 24 h, N 269",48.60 s
same,aPTT Percent Change from Baseline Mean,"[4]; DAY 21 anytime, N 268",115.62%
same,aPTT Percent Change from Baseline Median,"[4]; DAY 21 anytime, N 268",112.6%
same,aPTT Value Mean,"[4]; DAY 21 anytime, N 268",57.27 s
same,aPTT Value Median,"[4]; DAY 21 anytime, N 268",55.10 s
same,aPTT Percent Change from Baseline Mean,"[4]; DAY 90 anytime, N 241",97.32%
same,aPTT Percent Change from Baseline Median,"[4]; DAY 90 anytime, N 241",101.18%
same,aPTT Value Mean,"[4]; DAY 90 anytime, N 241",52.00 s
same,aPTT Value Median,"[4]; DAY 90 anytime, N 241",52.60 s
same,change in aPTT from baseline,[4]; milvexian treated groups,Dose-dependent increases
same,"Incident infarcts at Day 90 by vascular territory: subjects (percent, in parentheses)","[5]; ACA, 25 BID, N = 285",(1.1)
same,"Incident infarcts at Day 90 by vascular territory: subjects (percent, in parentheses)","[5]; ACA, 25 QD, N = 305",(0.3)
same,"Incident infarcts at Day 90 by vascular territory: subjects (percent, in parentheses)","[5]; ACA, 50 BID, N = 306",(1.3)
same,"Incident infarcts at Day 90 by vascular territory: subjects (percent, in parentheses)","[5]; AChA, 50 BID, N = 306",(0.3)
same,"Incident infarcts at Day 90 by vascular territory: subjects (percent, in parentheses)","[5]; AChA, 100 BID, N = 275",(0.4)
same,"Incident infarcts at Day 90 by vascular territory: subjects (percent, in parentheses)","[5]; AChA, 200 BID, N = 311",(0.4)
same,"Incident infarcts at Day 90 by vascular territory: subjects (percent, in parentheses)","[5]; BASILAR - MIDBRAIN, 25 QD, N = 305",(0.3)
same,"Incident infarcts at Day 90 by vascular territory: subjects (percent, in parentheses)","[5]; BASILAR - PONS, 50 BID, N = 306",(0.3)
same,"Incident infarcts at Day 90 by vascular territory: subjects (percent, in parentheses)","[5]; BASILAR - THALAMUS, 25 BID, N = 285",(0.7)
same,"Incident infarcts at Day 90 by vascular territory: subjects (percent, in parentheses)","[5]; BASILAR - THALAMUS, 25 QD, N = 305",(0.3)
same,"Incident infarcts at Day 90 by vascular territory: subjects (percent, in parentheses)","[5]; BASILAR - THALAMUS, 50 BID, N = 306",(0.3)
same,"Incident infarcts at Day 90 by vascular territory: subjects (percent, in parentheses)","[5]; LENTICULO-STRIATE ARTERIES, 25 BID, N = 285",(2.1)
same,"Incident infarcts at Day 90 by vascular territory: subjects (percent, in parentheses)","[5]; LENTICULO-STRIATE ARTERIES, 25 QD, N = 305",(2.0)
same,"Incident infarcts at Day 90 by vascular territory: subjects (percent, in parentheses)","[5]; LENTICULO-STRIATE ARTERIES, 50 BID, N = 306",(1.3)
same,"Incident infarcts at Day 90 by vascular territory: subjects (percent, in parentheses)","[5]; LENTICULO-STRIATE ARTERIES, 100 BID, N = 275",(1.5)
same,"Incident infarcts at Day 90 by vascular territory: subjects (percent, in parentheses)","[5]; LENTICULO-STRIATE ARTERIES, 200 BID, N = 311",(1.5)
same,"Incident infarcts at Day 90 by vascular territory: subjects (percent, in parentheses)","[5]; MCA, 25 BID, N = 285",(4.9)
same,"Incident infarcts at Day 90 by vascular territory: subjects (percent, in parentheses)","[5]; MCA, 25 QD, N = 305",(4.9)
same,"Incident infarcts at Day 90 by vascular territory: subjects (percent, in parentheses)","[5]; MCA, 50 BID, N = 306",(4.2)
same,"Incident infarcts at Day 90 by vascular territory: subjects (percent, in parentheses)","[5]; MCA, 100 BID, N = 275",(4.7)
same,"Incident infarcts at Day 90 by vascular territory: subjects (percent, in parentheses)","[5]; MCA, 200 BID, N = 311",(4.7)
same,"Incident infarcts at Day 90 by vascular territory: subjects (percent, in parentheses)","[5]; PCA, 25 BID, N = 285",(1.4)
same,"Incident infarcts at Day 90 by vascular territory: subjects (percent, in parentheses)","[5]; PCA, 25 QD, N = 305",(2.6)
same,"Incident infarcts at Day 90 by vascular territory: subjects (percent, in parentheses)","[5]; PCA, 50 BID, N = 306",(2.0)
same,"Incident infarcts at Day 90 by vascular territory: subjects (percent, in parentheses)","[5]; PCA, 100 BID, N = 275",(2.5)
same,"Incident infarcts at Day 90 by vascular territory: subjects (percent, in parentheses)","[5]; PCA, 200 BID, N = 311",(2.5)
same,"Incident infarcts at Day 90 by vascular territory: subjects (percent, in parentheses)","[5]; PICA, 25 BID, N = 285",(1.1)
same,"Incident infarcts at Day 90 by vascular territory: subjects (percent, in parentheses)","[5]; PICA, 25 QD, N = 305",(0.3)
same,"Incident infarcts at Day 90 by vascular territory: subjects (percent, in parentheses)","[5]; PICA, 100 BID, N = 275",(1.1)
same,"Incident infarcts at Day 90 by vascular territory: subjects (percent, in parentheses)","[5]; PICA, 200 BID, N = 311",(1.1)
same,"Incident infarcts at Day 90 by vascular territory: subjects (percent, in parentheses)","[5]; SCA, 25 BID, N = 285",(0.7)
same,"Incident infarcts at Day 90 by vascular territory: subjects (percent, in parentheses)","[5]; SCA, 25 QD, N = 305",(0.7)
same,"Incident infarcts at Day 90 by vascular territory: subjects (percent, in parentheses)","[5]; SCA, 100 BID, N = 275",(0.4)
same,"Incident infarcts at Day 90 by vascular territory: subjects (percent, in parentheses)","[5]; SCA, 200 BID, N = 311",(0.4)
